Results on 3 molecules are retold here after patent US12252478B2.

Several values for one entry are separate records, joined by “and”; a condition that tells them apart may be missing. Identical values can stand only once.

Data set [1] in a line: Thermodynamic stability of Forms A and B: heating and cooling cycles, transition temperatures.
A short description of data set [2]: Equilibration in water depending on pH / form conversion. The class given is physicochemical. From the text:
Forms A and B are enantiotropically related. […] Form B spontaneously transforms to Form A at ambient conditions. Form A can be converted to Modification HA, or Form HA, when equilibrated in water at pH 1.

A short description of data set [3]: Solubility as a function of pH. The class given is physicochemical. The conditions noted are these: above pH 3.
Data set [4] in a line: Hygroscopicity (water uptake). Type of data set: physicochemical.
The nature of data set [5]: Intrinsic dissolution rate (VanKel instrument, Cary 100 photometer). The class given is physicochemical. The protocol:
As measured on a VanKel instrument using a Cary 100 photometer, the intrinsic dissolution rate of Form A was determined in pH 4.5, pH 6.8 and 0.1 N HCl medium as follows:
As measured on a VanKel instrument using a Cary 100 photometer, the intrinsic dissolution rate of Form A was determined in pH 3.5, pH 4.5 and 0.1 N HCl medium as follows: […]

Setting [6] is: heating/cooling rate 0.5° C./min.
[7] abbreviates: heating/cooling rate 10° C./min.
The mark [8] stands for this setting: heating/cooling rate 20° C./min.
Where [9] appears, read: heating/cooling rate 40° C./min.

Regarding `Cl.O=C(Nc1ccc(OC(F)(F)Cl)cc1)c1cnc(N2CC[C@@H](O)C2)c(-c2ccn[nH]2)c1` [crystal form B of the hydrochloride salt], the “form stability at ambient conditions” value in data set [1] (ambient conditions) is listed as “spontaneously transforms back into Form A”. The “transition B → A” value was determined as 60.5 °C in data set [1] (setting [6]); 53.8 °C in data set [1] (heating/cooling rate 1° C./min); 38.5 °C in data set [1] (heating/cooling rate 5° C./min); 37.5 °C in data set [1] (setting [7]); 34.7 °C in data set [1] (setting [8]); 32.2 °C in data set [1] (setting [9]). The decomposition observed entry in data set [1] (upon heating) is “above 240 °C”.
Turning to `Cl.O=C(Nc1ccc(OC(F)(F)Cl)cc1)c1cnc(N2CC[C@@H](O)C2)c(-c2ccn[nH]2)c1` [form A of HCl salt], the results for the “behaviour when equilibrated in water” value in data set [2] (pH 1) and in data set [2] (pH>3.5) were “converting into the trihydrate HA” and “prone to disproportionate”, respectively. Moreover, the solubility result in data set [3] is “rather low”. In addition, the “transition A → B” value in data set [1] (setting [6]) is 95.1 °C; in data set [1] (heating/cooling rate 1° C./min), 96.5 °C; in data set [1] (heating/cooling rate 5° C./min) it was 100.3 °C; in data set [1] (setting [7]), 102.1 °C; in data set [1] (setting [8]), 104.8 °C; in data set [1] (setting [9]), 103.7 °C. Further, in data set [4] (25° C. up to 95% relative humidity), the water uptake result is listed as “less than 0.4%”. For the same molecule, the “Intrinsic DR value” was found to be 0.01 mg/min/cm2 in data set [5] (Acetate buffer pH 4.5), 0.02 mg/min/cm2 in data set [5] (Citrate buffer (pH 3.5)), 2.25 mg/min/cm2 in data set [5] (HCL 0.01N (pH 2)) and 0.16 mg/min/cm2 in data set [5] (HCL 0.1N (pH 1)).
Consider `O=C(Nc1ccc(OC(F)(F)Cl)cc1)c1cnc(N2CC[C@@H](O)C2)c(-c2ccn[nH]2)c1` [Free Base form A], for which the solubility entry in data set [3] is “rather low”. Further, the water uptake result in data set [4] (25° C. up to 92% relative humidity) was “less than 0.1%”. Moreover, the “Intrinsic DR value” in data set [5] (Acetate buffer pH 4.5) was “n.a (does not dissolve)”; in data set [5] (HCL 0.1N) it was 1.8 mg/min/cm2 and 1.9 mg/min/cm2; in data set [5] (pH = 6.8), “n.a (does not dissolve)”.
